Here are results for 7 molecules from patent publication US7230033B2, “Pest control compositions and methods for their use” (United States of America as represented by the Secretary of …, priority 2000, dated 2007).

Data set [1] relates to nymphal Ixodes scapularis. Kind of data set: Treated-vial biocidal screening with 2% acetone solutions (Example 2), tick nymphs. Type of data set: in vivo. Conditions: treated vials sat 72 h; arthropods added for the final 24 h. The method, then: (§1) Samples of the compounds listed below were obtained as described in Example 1, and screened for biocidal activities against nymphal Ixodes scapularis. In this example, 2% acetone solutions (wt/vol) of the compounds were applied to inner surfaces of 2-dram friction cap vials. Vials and caps were treated then allowed to dry for a minimum of 4 hours before placing 10 nymphs in each container. These same vials were used to challenge additional nymphs and adult I. scapularis ticks and adult Xenopsylla cheopis fleas through five weeks to observe any possible residual activity.
(§2) Numbers in parentheses refer to length of treatment in terms of hours (h) or weeks (wk). Data is presented in terms of number killed/number tested. For test periods longer than 24 hours, the treated vials were allowed to sit for the stated period after drying (72 h, 4 wk, or 5 wk) and each group of arthropods was added to the vials for the final 24 h of the test period.

Data set [2] relates to adult I. scapularis ticks. The data set can be described thus: Treated-vial biocidal screening with 2% acetone solutions (Example 2), adult ticks, residual. Type of data set: in vivo, Ixodes scapularis. The settings on record: treated vials sat 4 wk; arthropods added for the final 24 h. The method, then:
as §1, §2

Data set [3] has as its system adult Xenopsylla cheopis fleas. The data set can be described thus: Treated-vial biocidal screening with 2% acetone solutions (Example 2), adult fleas, residual. Type of data set: in vivo. The settings on record: treated vials sat 5 wk; arthropods added for the final 24 h. The method, then:
as §1, §2

Another data set relates to I. scapularis nymphs. Kind of data set: Tick bioassay, treated 2-dram vials, probit analysis. Type of data set: in vivo, Ixodes scapularis. Conditions: 24 h exposure; for LC50 / LC90: NE = not effective at concentrations tested; for Slope: probit. An excerpt: A control treated with acetone only was run with each series.
For each time point, if ticks and fleas were incapable of movement, maintaining normal posture, leg coordination, ability to right themselves, or any signs of life, they were considered moribund or dead.

Another data set concerns X. cheopis adults. The data set can be described thus: Flea bioassay, treated 2-dram vials, probit analysis. Type of data set: in vivo, Xenopsylla cheopis. The settings on record: 24 h exposure; for LC50: NE = not effective at concentrations tested; for Slope: probit. The method, then: Med. […] A control treated with acetone only was run with each series. Tick and flea susceptibility was evaluated using a modification of the disposable pipette method of Barnard et al. (J. Econ. Entomol., 74:466-69, 1981) and Maupin and […]. Med. […] The inner surface of 2-dram friction cap vials were treated with the compound/acetone solution, or acetone only as a control, and left to air-dry overnight (see also, […] et al., J. Med. […] Three to 4 holes were made in the plastic cap to allow for air exchange. Nymphal ticks and adult fleas were then placed directly into the vials using forceps. […] For each time point, if ticks and fleas were incapable of movement, maintaining normal posture, leg coordination, ability to right themselves, or any signs of life, they were considered moribund or dead.

A further data set relates to Ae. aegypti adults. Kind of data set: Adult mosquito bottle bioassay. Type of data set: in vivo, Aedes aegypti. The settings on record: 24 h exposure; for LC50 / LC90: NE = not effective at concentrations tested; for Slope: probit. The method, then: (§3) Adult mosquitoes were tested using the bottle bioassay method of Brogden and McAllister (J. Am. Mosq. Control Assoc., 14:159–64, 1998) with minor modifications. Natural product extracts were two-fold serially diluted for a total of 8 concentrations ranging from 0.002% to 0.25% in 1.5 ml of acetone. Individual dilutions were added to 250 ml Wheaton glass bottles and capped. Bottles were manipulated to evenly coat all inner surfaces. The caps were removed and bottles were allowed to air-dry overnight. Once bottles were completely dry, 10–50 (in some tests 25–50) adult mosquitoes were aspirated into the bottles. Mosquitoes were held in the bottles for 24 h at 23° C. and 85% RH. Morbidity and mortality were recorded at 15, 30, 45, and 60 min and 24 hour intervals. One bottle for each replicate was treated with acetone only and served as a control. The dose-mortality data was evaluated with probit analysis, using the LdP Line software, to determine LC50 and LC90 values.
Carvacrol was combined with compound 7, 9, or 10 at a 1:1 ratio (7.5 μl of carvacrol:7.5 μl of compound 7, 9, or 10 was added to 2,985 μl of acetone for a 0.5% solution, from which serial dilutions were made), and tested as previously described against nymphal ticks and adult and larval mosquitoes.

For another data set, the system named is Ixodes scapularis nymphs. The data set can be described thus: Residual activity, aged treated vials, ticks. Type of data set: in vivo. The settings on record: 1 week after treatment. The procedure:
(§4) Briefly, groups of 10 nymphal I. scapularis and X. cheopis fleas were used in all tests (more than a total of 5,240 nymphs and 4,860 fleas were exposed to the compounds). The inner surface of 2-dram friction cap vials were treated with the compound/acetone solution, or acetone only as a control, and left to air-dry overnight (see also, Panella et al., J. Med. Entomol., 42(3):352-358, 2005. Three to 4 holes were made in the plastic cap to allow for air exchange. Nymphal ticks and adult fleas were then placed directly into the vials using forceps. Vials containing ticks or fleas were placed in desiccators for 24 h at 21° C. and 90% RH. Morbidity and mortality was recorded at 1, 2, 4, 8, and 24 h after initial exposure.

Another data set relates to Aedes aegypti adults. The data set can be described thus: Residual activity, aged treated bottles, mosquitoes. Type of data set: in vivo. Conditions: 1 week after treatment. The method, then: as §3
In data set [4] the test system is ticks, fleas, and mosquitoes. Kind of data set: Residual activity, general statements (Examples 9, 17). Type of data set: in vivo. The settings on record: ticks.
In data set [5] the test system is ticks, fleas, formicids and termites. The data set can be described thus: Persistence of biocidal activity in vials treated with 2% solutions (Example 5). Type of data set: in vivo. Conditions: at 11 weeks. The method, then:
as §1
Persistence of biocidal activity was determined for nootkatone and valencene-11,12-epoxide by using the vials as treated with the 2% solutions of Example 2. This bioassay employed groups of ticks, fleas, formicids and termites using a method similar to that described in Example 2. […] At 11 weeks, the biocidal activity began to dissipate below the 100% mortality level.

For data set [6], the system named is ticks, fleas, and mosquitoes. The data set can be described thus: Pesticidal activity against all three arthropods, general statements (Examples 9, 17). Type of data set: in vivo. The settings on record: 24 hours exposure; initial screenings. The procedure:
Concentrations of the compounds were prepared by 2-fold serial dilutions of a 0.5% (wt:vol) solution of the extracts in acetone (see, e.g., Panella et al., J. Med. Entomol., 42(3):352-358, 2005). The approximate toxicity of individual compounds and compounds in combination was determined with a total of 8 doses ranging from 0.002% to 0.25%. […] A control treated with acetone only was run with each series. Tick and flea susceptibility was evaluated using a modification of the disposable pipette method of Barnard et al. (J. Econ. Entomol., 74:466–69, 1981) and Maupin and Piesman (J. Med. Entomol., 31:319–321, 1994).
as §4
as §3, with “Once bottles were completely dry, 10–50 (in some tests 25–50) adult mosquitoes were aspirated into the bottles. Mosquitoes were held in the bottles for 24 h at 23° C. and 85% RH.” left out, “One bottle for each replicate was treated with acetone only and served as a control.” left out

For data set [7], the system named is ticks, fleas and mosquitoes. The data set can be described thus: Example 2 bioassay, qualitative comparison on ticks, fleas and mosquitoes (Examples 4, 6). Type of data set: in vivo. The procedure:
as §1
Nootkatol was tested using the bioassay presented in Example 2.
Two nootkatone samples were compared to nootkatone isolated from Alaska yellow cedar using the method presented in Example 1. The first sample was a natural extract of nootkatone taken from grapefruit oil purchased commercially. The second sample was a synthetically produced nootkatone purchased commercially.
Both samples were compared to the nootkatone originating from Alaska yellow cedar in terms of their biocidal activities. Using a bioassay method similar to that presented in Example 2, no qualitative differences were discernible among the nootkatone samples in terms of their biocidal effect on ticks, fleas and mosquitoes.

For data set [8], the system named is Ixodes scapularis nymphal ticks. The data set can be described thus: Tick repellency bioassay. Type of data set: in vivo. The settings on record: combinations 1:1 by weight. From the text: One-hundred (100) μl of test compound was pipetted onto a cotton-tipped applicator mounted to the bottom center of a 1 dram glass shell vial using non-toxic modeling clay. A total of 8 concentrations were screened with doses ranging from 0.04–5.0%. Applicators treated with acetone only served as controls. A line was drawn around the perimeter of the vial immediate to the base of the treated cotton portion of the applicator. The area above the line was designated the “repellent zone”. The vial was allowed to air-dry 1 h before a single tick was introduced. Vials were covered with a single piece of mesh and fitted with a hollowed-out plastic cap to cover the opening of the vial; this prevented the tick from escaping but allowed for air exchange. Vials were breathed upon by investigators at 1 min intervals and a hand was placed over the test vials to provide stimuli for ticks to pass into the repellent zone. […] If the tick crossed over and remained in the “repellent zone” for ≧5 sec, the tick was deemed non-repelled by the test compound. Each test was replicated 10 times using a new tick for each test. Repellent activity was determined at 1, 2, 3, and 4 h after treatment. Probit analysis was used to determine repellent efficacy (RD50 and RD95).

On to `C=C(C)C1CC=C2C=CCC(C)C2(C)C1` (centres unmarked) [Compound 6, Nootkatene], for which the “I. scapularis nymphs (72 h), number killed/number tested” value in data set [1] is listed as 4/5. Also, the “I. scapularis adults (4 wk), number killed/number tested” value in [2] is listed as 0/5. The “X. cheopis adults (5 wk), number killed/number tested” value in data set [3] is listed as 0/5. In addition, the LC50 with I. scapularis nymphs is listed as 0.011 percent concentration, wt:vol; in the data set on X. cheopis adults, 0.017 percent concentration, wt:vol; in the data set on Ae. aegypti adults, 0.027 percent concentration, wt:vol. Besides, in the data set on I. scapularis nymphs, the LC90 was 0.06 percent concentration, wt:vol. Besides, the Slope in the data set on I. scapularis nymphs amounted to 1.763; with X. cheopis adults it was 2.022; with Ae. aegypti adults it was 3.696. Moreover, the entries for the “Slope, residual activity” value with Ixodes scapularis nymphs and in the data set on Aedes aegypti adults were 0.533 and 1.833, respectively. For the same molecule, the “LC90, residual activity” value in the data set with Aedes aegypti adults is given as 0.659 percent concentration, wt:vol. For the same molecule, the residual activity entry in data set [4] is on record as “did not demonstrate any residual activity after one week”.
For `C=C(C)[C@@H]1CCC2=CCC[C@@H](C)[C@]2(C)C1` [Compound 5, Valencene], the “I. scapularis nymphs (72 h), number killed/number tested” value in [1] was 0/5. The “I. scapularis adults (4 wk), number killed/number tested” value in data set [2] is recorded as 0/5. Further, the “X. cheopis adults (5 wk), number killed/number tested” value in [3] is 0/5. Further, in the data set with I. scapularis nymphs, the Slope worked out at 0.684. This molecule showed a Slope with X. cheopis adults of 6.925. In addition, in the data set on Ae. aegypti adults, the LC50 is listed as 0.015 percent concentration, wt:vol; the LC90 is 0.037 percent concentration, wt:vol; the Slope is 3.199.
For the molecule `C[C@@H]1CCC=C2CCC(C3(C)CO3)C[C@]21C` (some centres unmarked) [Compound 13, valencene-11,12-epoxide], the mortality level in data set [5] is below 100%. Further, in the data set on I. scapularis nymphs, the LC50 is listed as 21.219 percent concentration, wt:vol; the LC90 is given as 3713.114 percent concentration, wt:vol; the Slope was 0.571. This molecule also came in with a Slope in the data set on Ae. aegypti adults of 1.581.
On to `COc1cc(C(C)C)ccc1C` [Compound 3, Methyl carvacrol], for which the pesticidal activity result in [6] is given as “no pesticidal activity”.
On the same count and under the same terms, for `CC1=CCC2C(C1)C2(C)C` (centres unmarked) [Compound 1, 3-Carene] the value was “no pesticidal activity”.
For `C=C(C)[C@@H]1CCC2=C[C@@H](O)C[C@@H](C)[C@]2(C)C1` [Compound 12, Nootkatol], the “biocidal activity compared with nootkatene” value in [7] is on record as “essentially equivalent to the activity of nootkatene”. In addition, the LC50 is recorded as 0.023 percent concentration, wt:vol with I. scapularis nymphs; 0.024 percent concentration, wt:vol in the data set with X. cheopis adults; 0.004 percent concentration, wt:vol in the data set with Ae. aegypti adults. For the same molecule, the LC90 in the data set with I. scapularis nymphs is 0.059 percent concentration, wt:vol; in the data set with Ae. aegypti adults, 0.01 percent concentration, wt:vol. For the same molecule, the values for the Slope in the data set with I. scapularis nymphs, with X. cheopis adults and in the data set with Ae. aegypti adults were 3.069, 2.101 and 3.201, respectively. The RD50 in data set [8] (1 hr) is listed as 0.047 % (w/v); in data set [8] (4 hr), 0.320 % (w/v).
On to `CC1=CCC(O)(C(C)C)CC1` (centres unmarked) [Compound 2, Terpinen-4-ol], for which, in [6], the pesticidal activity result was “no pesticidal activity”.
